From BindingDB's records for doi:10.1124/jpet.102.038075 (Nih, 2002) come the findings set out here.

In test [1] the target is T1, Vasoactive intestinal polypeptide receptor 2 (Rattus norvegicus, UniProt P35000).
T1 sequence (P35000 whole entry): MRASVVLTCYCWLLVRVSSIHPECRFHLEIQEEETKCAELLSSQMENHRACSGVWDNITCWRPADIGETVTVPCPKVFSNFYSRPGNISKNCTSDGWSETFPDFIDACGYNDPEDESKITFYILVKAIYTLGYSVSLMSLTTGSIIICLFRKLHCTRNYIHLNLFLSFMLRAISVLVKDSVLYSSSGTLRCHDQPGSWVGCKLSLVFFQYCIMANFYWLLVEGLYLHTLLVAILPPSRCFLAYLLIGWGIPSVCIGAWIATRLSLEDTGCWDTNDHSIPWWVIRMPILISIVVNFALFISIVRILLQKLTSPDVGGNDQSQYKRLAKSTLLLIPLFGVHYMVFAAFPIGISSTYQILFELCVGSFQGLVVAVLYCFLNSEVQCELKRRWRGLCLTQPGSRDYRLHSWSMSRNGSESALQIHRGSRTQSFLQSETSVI

Test [2] has as its target T2, Vasoactive intestinal polypeptide receptor 2 (Homo sapiens, UniProt P41587).
T2 sequence (P41587 whole entry): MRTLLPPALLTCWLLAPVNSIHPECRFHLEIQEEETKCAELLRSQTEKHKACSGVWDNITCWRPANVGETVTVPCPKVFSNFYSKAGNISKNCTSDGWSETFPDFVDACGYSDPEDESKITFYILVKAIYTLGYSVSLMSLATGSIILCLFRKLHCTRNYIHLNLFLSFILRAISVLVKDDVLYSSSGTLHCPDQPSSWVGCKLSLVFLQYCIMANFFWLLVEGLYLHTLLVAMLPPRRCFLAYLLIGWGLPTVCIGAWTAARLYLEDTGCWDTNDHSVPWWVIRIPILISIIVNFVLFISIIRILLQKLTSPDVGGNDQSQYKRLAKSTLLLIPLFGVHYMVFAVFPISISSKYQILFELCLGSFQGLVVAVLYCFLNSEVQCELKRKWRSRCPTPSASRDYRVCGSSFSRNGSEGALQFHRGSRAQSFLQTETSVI

Test [3] has as its target T3, Vasoactive intestinal polypeptide receptor 1 (Homo sapiens, UniProt P32241).
T3 sequence (P32241 whole entry): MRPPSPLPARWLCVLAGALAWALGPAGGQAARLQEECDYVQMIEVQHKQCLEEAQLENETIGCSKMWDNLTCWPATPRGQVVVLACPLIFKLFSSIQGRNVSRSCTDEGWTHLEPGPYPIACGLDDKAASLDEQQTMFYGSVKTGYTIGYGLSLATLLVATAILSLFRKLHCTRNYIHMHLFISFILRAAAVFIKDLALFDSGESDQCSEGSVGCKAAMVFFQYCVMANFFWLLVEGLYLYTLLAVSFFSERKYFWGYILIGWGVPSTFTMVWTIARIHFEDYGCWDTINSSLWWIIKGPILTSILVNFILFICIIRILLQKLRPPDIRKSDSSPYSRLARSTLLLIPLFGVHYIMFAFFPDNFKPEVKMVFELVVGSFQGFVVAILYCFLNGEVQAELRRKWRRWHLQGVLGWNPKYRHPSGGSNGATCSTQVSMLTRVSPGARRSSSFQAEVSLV

“And” between values parts separate entries of the source, which are not always exact repeats. Identical values can stand only once. Bridge positions count the residues as written; N and C are the ends. Square brackets hold non-standard residues; d marks the D form. Peptide text beside a SMILES is read from it. Nle = CCCC[C@H](N)C(=O)O

Take “H-HSDAVFTDNYTRLRKQMAAKKYLNSILN-NH2 [VIP Ala19]”: the Ki (as a rule, the dissociation constant of the complex between target and ligand, obtained from inhibition or displacement) in test [1] is 0.43 nM and 3.4 nM; in test [2], 2.4 nM and 2.6 nM and 5 nM.

As to “H-HSDAVFTDNYTRLRKQAAVKKYLNSILN-NH2 [VIP Ala17]”, the Ki in test [1] is 2.3 nM and 5 nM.

Consider “H-HSDAVFTDNYTRLRAQMAVKKYLNSILN-NH2 [VIP Ala15]”, for which the Ki is 1.9 nM and 16.6 nM in test [1]; 19.1 nM and 40.7 nM and 38.4 nM in test [2].

Take `CC[C@H](C)[C@H](NC(=O)[C@H](CO)NC(=O)[C@H](CC(N)=O)NC(=O)[C@H](CC(C)C)NC(=O)[C@H](Cc1ccc(O)cc1)NC(=O)[C@H](CCCCN)NC(=O)[C@H](CCCCN)NC(=O)[C@@H](NC(=O)[C@H](C)NC(=O)[C@H](CCSC)NC(=O)[C@H](CCC(N)=O)NC(=O)[C@H](CCCCN)NC(=O)[C@H](CCCN=C(N)N)NC(=O)[C@H](CC(C)C)NC(=O)[C@H](CCCN=C(N)N)NC(=O)[C@@H](NC(=O)[C@H](Cc1ccc(O)cc1)NC(=O)[C@H](CC(N)=O)NC(=O)[C@H](CC(=O)O)NC(=O)[C@H](C)NC(=O)[C@H](Cc1ccccc1)NC(=O)[C@@H](NC(=O)[C@H](C)NC(=O)[C@H](CC(=O)O)NC(=O)[C@H](CO)NC(=O)[C@@H](N)Cc1cnc[nH]1)C(C)C)[C@@H](C)O)C(C)C)C(=O)N[C@@H](CC(C)C)C(=O)N[C@@H](CC(N)=O)C(N)=O` [VIP Ala7]: the Ki in test [1] is 138 nM and 631 nM; in test [2] it was 1700 nM and 1120 nM and 3000 nM.

As to “H-HSDAVFTANYTRLRKQMAVKKYLNSILN-NH2 [VIP Ala8]”, in test [2], the Ki is 4.4 nM and 2.7 nM and 13.3 nM.

Regarding “H-HSDAVFTDNYTRLRKQMAVKKYLASILN-NH2 [VIP Ala24]”, the Ki in test [1] is 0.4 nM and 3.2 nM; in test [2] it was 4.1 nM and 14.1 nM and 18.6 nM.

Consider “H-HSDAAFTDNYTRLRKQMAVKKYLNSILN-NH2 [VIP Ala5]”, for which the Ki was 13.2 nM and 23 nM in test [1]; 12.2 nM and 48.1 nM and 120 nM in test [2].

With “H-HSDAVFTDNYTRLRKQMAVKKALNSILN-NH2 [VIP Ala22]”, the Ki in test [1] was 759 nM and 3000 nM; in test [2], 3000 nM.

In the case of “H-HSDAVFTDNYTRARKQMAVKKYLNSILN-NH2 [VIP Ala13]”, the inhibition constant (Ki) in test [2] was 48.9 nM and 81.3 nM and 52.3 nM.

With “H-HSDAVFTDNATRLRKQMAVKKYLNSILN-NH2 [VIP Ala10]”, the Ki in test [1] is 724 nM and 2660 nM; in test [2] it was 3000 nM.

For the compound `CCCC[C@H](NC(=O)[C@H](CCC(N)=O)NC(=O)[C@H](CCCCN)NC(=O)[C@H](CCCNC(=N)N)NC(=O)[C@H](CC(C)C)NC(=O)[C@H](CCCCN)NC(=O)[C@@H](NC(=O)[C@H](Cc1ccc(O)cc1)NC(=O)[C@H](CC(N)=O)NC(=O)[C@H](CCC(=O)O)NC(=O)[C@@H](NC(=O)[C@H](Cc1ccccc1)NC(=O)[C@@H](NC(=O)[C@H](C)NC(=O)[C@H](CC(=O)O)NC(=O)[C@H](CO)NC(=O)[C@H](Cc1c[nH]cn1)NC(C)=O)C(C)C)[C@@H](C)O)[C@@H](C)O)C(=O)N[C@@H](C)C(=O)N[C@@H](C)C(=O)N[C@@H](CCCCN)C(=O)N[C@H]1CCCCNC(=O)C[C@@H](C(=O)N[C@@H](CC(C)C)C(=O)N[C@@H](CCCCN)C(=O)N[C@@H](CCCCN)C(=O)NCC(=O)NCC(=O)N[C@H](C(N)=O)[C@@H](C)O)NC(=O)[C@H](CC(N)=O)NC(=O)[C@H](CC(C)C)NC(=O)[C@H](Cc2ccc(O)cc2)NC1=O` [Ac-L-His-L-Ser-L-Asp-L-Ala-L-Val-L-Phe-L-Thr-L-Glu-L-Asn-L-Tyr-L-Thr-L-Lys-L-Leu-L-Arg-L-Lys-L-Gln-L-Nle-L-Ala-L-Ala-L-Lys-L-Lys(1)-L-Tyr-L-Leu-L-Asn-L-Asp(1)-L-Leu-L-Lys-L-Lys-Gly-Gly-L-Thr-NH2] (Ac-HSDAVFTENYTKLRKQ[Nle]AAKKYLNDLKKGGT-NH2; lactam 21-25), the Ki in test [3] was 1200 nM and 1020 nM; in test [2] it was 2.1 nM and 15.9 nM and 3.9 nM.

As for “H-HSDAVFTNSYRKVLKRLSARKLLQDIL-NH2 [NSC_0]”, the Ki in test [3] is 1.7 nM and 7.7 nM and 8.9 nM; in test [2], 3000 nM.

In the case of “H-ASDAVFTDNYTRLRKQMAVKKYLNSILN-NH2 [VIP Ala1]”, the Ki in test [1] is 75.7 nM and 479 nM; in test [2], 209 nM and 251 nM and 559 nM.

For “H-HSDAVFTDNYTRLRKQMAVAKYLNSILN-NH2 [VIP Ala20]”, the Ki in test [2] is 10 nM and 12.6 nM and 21.9 nM.

Consider “H-HSDAVFTDNYTRLAKQMAVKKYLNSILN-NH2 [VIP Ala14]”, for which, in test [2], the Ki was 47.9 nM and 110 nM and 166 nM.

On to “H-HSDAVFTDAYTRLRKQMAVKKYLNSILN-NH2 [VIP Ala9]”, for which, in test [2], the Ki was 4.3 nM and 3.2 nM and 6 nM.

On to “H-HSDAVFTDNYTRLRKQMAVKKYANSILN-NH2 [VIP Ala23]”, for which the Ki in test [1] was 110 nM and 972 nM; in test [2], 1700 nM and 2820 nM and 2710 nM.

For the compound “H-HSDAVFTDNYTRLRKQMAVKKYLNSIAN-NH2 [VIP Ala27]”, the Ki in test [2] is 19.5 nM and 79.4 nM and 89.1 nM.

Consider “H-HSAAVFTDNYTRLRKQMAVKKYLNSILN-NH2 [VIP Ala3]”, for which the Ki in test [1] was 138 nM and 546 nM; in test [2], 977 nM and 1150 nM and 2420 nM.

Turning to “H-HSDAVFTDNYTALRKQMAVKKYLNSILN-NH2 [VIP Ala12]”, the Ki in test [1] is 25.1 nM and 251 nM; in test [2], 331 nM and 676 nM and 288 nM.

Consider “H-HSDAVFTDNYTRLRKQMAVKKYLNSALN-NH2 [VIP Ala26]”, for which the Ki in test [2] was 9.1 nM and 11.8 nM and 15.2 nM and 50.1 nM and 49 nM and 27.9 nM.

Consider “H-HSDAVFTDNYTRLRKQMAVKKYLNSILA-NH2 [VIP Ala28]”, for which the Ki in test [2] was 34.7 nM and 21 nM and 27.2 nM.

“H-HADAVFTDNYTRLRKQMAVKKYLNSILN-NH2 [VIP Ala2]”: in test [2], the Ki was 3.4 nM and 3.5 nM and 2.1 nM.

On to “H-HSDAVFTDNYTRLRKQMAVKAYLNSILN-NH2 [VIP Ala21]”, for which the Ki in test [1] was 1.3 nM and 12.4 nM; in test [2], 8.1 nM and 17 nM and 12.6 nM.
